Experimental data published in paper PMC6272230, “Uses of 3-(2-Bromoacetyl)-2H-chromen-2-one in the Synthesis of Heterocyclic Compounds Incorporating Coumarin: Synthesis, Characterization and Cytotoxicity” (Molecules, 2015).

How the values were obtained:
[1] = system: human liver cancer (HA22T); assay: In vitro cytotoxicity against HA22T cells; assay type: cell-based; settings: liver cancer, concentration producing 50% reduction in cell growth, read-out: Cytotoxicity (IC50 in nM) HA22T
Protocol: (§1) The heterocyclic compounds, prepared in this study, were evaluated according to standard protocols for their in vitro cytotoxicity against six human cancer cell lines including cells derived from human gastric cancer (NUGC), human colon cancer (DLD1), human liver cancer (HA22T and HEPG2), nasopharyngeal carcinoma (HONE1), human breast cancer (MCF) and normal fibroblast cells (WI38). For comparison purposes, CHS 828, a pyridyl cyanoguanidine, was used as a standard antitumor drug (Figure 2). […] All the synthesized compounds were tested for their cytotoxicity against normal fibroblast cells.
(§2) Fetal bovine serum (FBS) and L-glutamine, were purchased from Gibco Invitrogen Co. (Scotland, UK). RPMI-1640 medium was purchased from Cambrex (East Rutherford, NJ, USA). Dimethyl sulfoxide (DMSO), CHS 828, penicillin, streptomycin and sulforhodamine B (SRB) were purchased from Sigma Chemical Co. (Saint Louis, MO, USA).
(§3) Cell cultures were obtained from the European Collection of Cell Cultures (ECACC, Salisbury, UK) and human gastric cancer (NUGC), human colon cancer (DLD1), human liver cancer (HA22T and HEPG2), human breast cancer (MCF), nasopharyngeal carcinoma (HONE1) and normal fibroblast cells (WI38) were kindly provided by the National Cancer Institute (NCI, Cairo, Egypt). They were grown as a monolayer and routinely maintained in RPMI-1640 medium supplemented with 5% heat inactivated FBS, 2 mM glutamine and antibiotics (penicillin 100 U/mL, streptomycin 100 µg/mL) at 37 °C in a humidified atmosphere containing 5% CO2. Exponentially growing cells were obtained by plating 1.5 × 10^5 cells/mL for the six human cancer cell lines followed by 24 h of incubation. The effect of the vehicle solvent (DMSO) on the growth of these cell lines was evaluated in all the experiments by exposing untreated control cells to the maximum concentration (0.5%) of DMSO used in each assay.

[2] = system: human breast cancer (MCF); assay: In vitro cytotoxicity against MCF cells; assay type: cell-based; settings: MCF, breast cancer, concentration producing 50% reduction in cell growth, read-out: Cytotoxicity (IC50 in nM) MCF
Protocol: as §1, §2, §3

[3] = system: human liver cancer (HEPG2); assay: In vitro cytotoxicity against HEPG2 cells; assay type: cell-based; settings: HEPG2, liver cancer, concentration producing 50% reduction in cell growth, read-out: Cytotoxicity (IC50 in nM) HEPG2
Protocol: as §1, §2, §3

[4] = system: human colon cancer (DLD1); assay: In vitro cytotoxicity against DLD1 cells; assay type: cell-based; settings: DLD-1, DLDI, colon cancer, concentration producing 50% reduction in cell growth, read-out: Cytotoxicity (IC50 in nM) DLDI
Protocol: as §1, §2, §3

[5] = In vitro cytotoxicity against normal fibroblast cells WI38; assay type: cell-based; settings: human, concentration producing 50% reduction in cell growth
Protocol: as §1, §2, §3

[6] = system: human gastric cancer (NUGC); assay: In vitro cytotoxicity against NUGC cells; assay type: cell-based; settings: gastric cancer, concentration producing 50% reduction in cell growth, read-out: Cytotoxicity (IC50 in nM) NUGC
Protocol: as §1, §2, §3

[7] = system: nasopharyngeal carcinoma (HONE1); assay: In vitro cytotoxicity against HONE1 cells; assay type: cell-based; settings: Homo sapiens; HONE1, nasopharyngeal carcinoma; concentration producing 50% reduction in cell growth; read-out: Cytotoxicity (IC50 in nM) HONE1
Protocol: as §1, §2, §3

Structure (SMILES)	melting point	IC50 [1]	IC50 [2]	IC50 [3]	IC50 [4]	IC50 [5]	IC50 [6]	IC50 [7]
COc1ccc(C2C(Br)=C(c3cc4ccccc4oc3=O)OC(N)=C2C#N)cc1 (centres unmarked) [Compound 6b, 2-Amino-5-bromo-4-(4-methoxyphenyl)-6-(2-oxo-2H-chromen-3-yl)-4H-pyran-3-carbonitrile]	193 to 195 °C	2260 nM	2850 nM	169 nM	2670 nM	280 nM	3320 nM	2850 nM
N#CC1=C(N)OC(c2cc3ccccc3oc2=O)=C(Br)C1c1ccc(Cl)cc1 (centres unmarked) [Compound 6c, 2-Amino-5-bromo-4-(4-chlorophenyl)-6-(2-oxo-2H-chromen-3-yl)-4H-pyran-3-carbonitrile]	178 to 180 °C	2270 nM	89 nM	683 nM	283 nM	480 nM	38 nM	1670 nM
N#CC1=C(N)NC(c2cc3ccccc3oc2=O)=C(Br)C1c1ccccc1 (centres unmarked) [Compound 7a, 2-Amino-5-bromo-6-(2-oxo-2H-chromen-3-yl)-4-phenyl-1,4-dihydropyridine-3-carbonitrile]	171 to 173 °C	166 nM	463 nM	399 nM	893 nM	379 nM	38 nM	423 nM
COc1ccc(C2C(Br)=C(c3cc4ccccc4oc3=O)NC(N)=C2C#N)cc1 (centres unmarked) [Compound 7b, 2-Amino-5-bromo-4-(4-methoxyphenyl)-6-(2-oxo-2H-chromen-3-yl)-1,4-dihydropyridine-3-carbonitrile]	164 to 166 °C	783 nM	409 nM	738 nM	532 nM	160 nM	782 nM	180 nM

Further lines, with some results ahead:

melting point	Structure (SMILES)	IC50 [1]	IC50 [2]	IC50 [3]	IC50 [4]	IC50 [5]	IC50 [6]	IC50 [7]
173 to 175 °C	N#CC1=C(N)OC(c2cc3ccccc3oc2=O)=C(C#N)C1c1ccccc1 (centres unmarked) [Compound 10a, 2-Amino-6-(2-oxo-2H-chromen-3-yl)-4-phenyl-4H-pyran-3,5-dicarbonitrile]	1160 nM	2530 nM	2770 nM	440 nM	417 nM	537 nM	6270 nM
133 to 135 °C	N#CC1=C(N)NC(c2cc3ccccc3oc2=O)=C(C#N)C1c1ccccc1 (centres unmarked) [Compound 11a, 2-Amino-6-(2-oxo-2H-chromen-3-yl)-4-phenyl-1,4-dihydropyridine-3,5-dicarbonitrile]	314 nM	4940 nM	3350 nM	222 nM	128 nM	680 nM	2320 nM
168 to 170 °C	N#CC1=C(N)NC(c2cc3ccccc3oc2=O)=C(C#N)C1c1ccco1 (centres unmarked) [Compound 11d, 2-Amino-4-(furan-2-yl)-6-(2-oxo-2H-chromen-3-yl)-1,4-dihydropyridine-3,5-dicarbonitrile]	137 nM	40 nM	3120 nM	3460 nM	652 nM	649 nM	1190 nM
